Experimental data published in paper PMC3914206.

Target: T1, panel of 442 kinases (Homo sapiens, UniProt P52333)
T1 construct: purchased KINOMEscan
T1 sequence (P52333 1-1124): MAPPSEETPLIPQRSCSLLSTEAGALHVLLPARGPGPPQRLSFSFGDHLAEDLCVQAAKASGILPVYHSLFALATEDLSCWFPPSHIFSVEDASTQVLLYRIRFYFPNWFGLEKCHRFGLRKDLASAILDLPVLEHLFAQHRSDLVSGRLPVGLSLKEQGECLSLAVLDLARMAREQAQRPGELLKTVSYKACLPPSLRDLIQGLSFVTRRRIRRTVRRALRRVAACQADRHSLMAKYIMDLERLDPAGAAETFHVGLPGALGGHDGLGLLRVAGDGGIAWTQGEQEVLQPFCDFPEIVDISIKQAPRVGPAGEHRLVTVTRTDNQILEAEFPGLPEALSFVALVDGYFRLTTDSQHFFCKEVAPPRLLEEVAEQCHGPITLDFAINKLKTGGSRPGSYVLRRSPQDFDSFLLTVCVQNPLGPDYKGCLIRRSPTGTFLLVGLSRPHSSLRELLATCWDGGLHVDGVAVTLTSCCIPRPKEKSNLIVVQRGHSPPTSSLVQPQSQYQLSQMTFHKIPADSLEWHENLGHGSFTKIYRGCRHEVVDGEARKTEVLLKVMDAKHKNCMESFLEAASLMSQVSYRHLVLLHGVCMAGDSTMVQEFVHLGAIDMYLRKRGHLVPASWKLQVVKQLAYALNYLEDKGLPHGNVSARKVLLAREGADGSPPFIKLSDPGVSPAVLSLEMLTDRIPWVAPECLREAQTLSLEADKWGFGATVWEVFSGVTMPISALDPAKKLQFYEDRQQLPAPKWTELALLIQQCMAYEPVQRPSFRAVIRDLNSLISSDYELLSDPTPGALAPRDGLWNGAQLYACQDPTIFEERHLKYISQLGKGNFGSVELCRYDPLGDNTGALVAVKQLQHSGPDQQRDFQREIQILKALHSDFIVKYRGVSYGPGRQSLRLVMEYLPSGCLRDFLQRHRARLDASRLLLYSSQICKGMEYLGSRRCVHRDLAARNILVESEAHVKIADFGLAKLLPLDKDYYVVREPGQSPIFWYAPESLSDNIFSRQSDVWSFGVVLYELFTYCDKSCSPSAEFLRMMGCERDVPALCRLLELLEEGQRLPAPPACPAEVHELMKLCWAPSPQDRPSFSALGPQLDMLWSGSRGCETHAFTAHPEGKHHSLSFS
Format: binding
Details: Compound Concentration 10 µM
Description: We assessed the selectivity of members of this scaffold using the KINOMEscan methodology across a near comprehensive panel of 442 kinases [[18,27]].

Row | SMILES | KINOMEscan: JAK3(JH1domain-catalytic)
1 | COc1cc(C(=O)N2CCC(N3CCN(C)CC3)CC2)ccc1Nc1ncc2c(n1)N(C1CCCC1)c1ccccc1C(=O)N2C [Compound 25, 11-cyclopentyl-2-((2-methoxy-4-(4-(4-methylpiperazin-1-yl)piperidine-1-carbonyl)phenyl)amino)-5-methyl-5H-benzo[e]pyrimido[5,4-b][1,4]diazepin-6(11H)-one] | 100
2 | COc1cc(C(=O)N2CCC(N3CCN(C)CC3)CC2)ccc1Nc1ncc2c(n1)N(C)c1ccccc1C(=O)N2C [15 (LRRK2-IN-1)] | 100
3 | CCOc1cc(C(=O)N2CCC(N3CCN(C)CC3)CC2)ccc1Nc1ncc2c(n1)N(C1CCCC1)c1ccccc1C(=O)N2C [Compound 26] | 100
